In ChEMBL document CHEMBL4819006, “1,4,6-Trisubstituted imidazo[4,5-c]pyridines as inhibitors of Bruton's tyrosine kinase” (Eur J Med Chem, 2021):
pIC50: −log10 of the molar value. Calls of active or inactive are those of the source. The calls are words filed in the database; no cut-off is given here.

Key:
[1] = system: Ramos; test: Growth inhibition of human Ramos cells assessed as inhibition of cell growth measured after 72 hrs by resazurin dye based assay; type: functional
[2] = system: K562; test: Growth inhibition of human K562 cells assessed as inhibition of cell growth measured after 72 hrs by resazurin dye based assay; type: functional
[3] = molecular target: Cyclin-dependent kinase 2 (Homo sapiens) (UniProt P24941); test: Inhibition of GST-tagged CDK2/cyclinE (unknown origin) expressed in Sf9 cells assessed as residual activity using histone H1 as substrate in presence of ATP and Ci(gamma33-P) ATP at 1 uM measured by microplate reader assay
[4] = Growth inhibition of human patient derived UPF7U cells assessed as inhibition of cell growth measured after 72 hrs by resazurin dye based assay; type: functional
[5] = molecular target: Tyrosine-protein kinase Fyn (Homo sapiens) (UniProt P06241); test: Inhibition of human recombinant full length GST-tagged FYN (M1 to L537 residues) assessed as residual activity using poly (Glu,Tyr) as substrate in presence of ATP and Ci(gamma33-P) ATP at 1 uM measured by microplate reader assay
[6] = Growth inhibition of human patient derived UPF1H cells assessed as inhibition of cell growth measured after 72 hrs by resazurin dye based assay; type: functional
[7] = system: Rec1; test: Growth inhibition of human REC1 cells assessed as inhibition of cell growth measured after 72 hrs by resazurin dye based assay; type: functional
[8] = molecular target: Tyrosine-protein kinase SYK (Homo sapiens) (UniProt P43405); test: Inhibition of human recombinant GST-tagged SYK (M1 to N635 residues) assessed as residual activity using poly (Glu,Tyr) as substrate in presence of ATP and Ci(gamma33-P) ATP at 1 uM measured by microplate reader assay
[9] = molecular target: Tyrosine-protein kinase ABL1 (Homo sapiens) (UniProt P00519); test: Inhibition of Abl (unknown origin) expressed in Sf9 cells assessed as residual activity using GGEAIYAAPFKK peptide as substrate in presence of ATP and Ci(gamma33-P)ATP at 1 uM measured by microplate reader
[10] = molecular target: Receptor-type tyrosine-protein kinase FLT3 (Homo sapiens) (UniProt P36888); test: Inhibition of human recombinant […] N-terminal GST-tagged FLT3 (R571 to S993 residues) assessed as residual activity using poly (Ala, Glu, Lys, Tyr) hydrobromide as substrate in presence of ATP and Ci(gamma33-P) ATP at 1 uM measured by microplate reader assay
[11] = molecular target: T1, Tyrosine-protein kinase BTK (Homo sapiens, UniProt Q06187); test: Inhibition of human BTK assessed as residual activity using poly (Glu,Tyr) as substrate in presence of ATP and Ci(gamma33-P) ATP at 1 uM measured by microplate reader assay
[12] = molecular target: T1, Tyrosine-protein kinase BTK; test: Inhibition of human BTK using poly (Glu,Tyr) as substrate in presence of ATP and Ci(gamma33-P) ATP measured by microplate reader assay
[13] = molecular target: Mitogen-activated protein kinase; ERK1/ERK2 (Homo sapiens) (UniProt P27361+P28482); test: Inhibition of ERK1/2 in human Ramos cells assessed as reduction in ERK1/2 phosphorylation at 1 to 5 uM measured after 24 hrs by western blot assay; type: cell-based; conditions: dose 1-5 µM
[14] = molecular target: T1, Tyrosine-protein kinase BTK; test: Inhibition of BTK in human Ramos cells assessed as reduction of IgM stimulated BTK ([…]) phosphorylation at 1 to 5 uM measured after 24 hrs by western blot assay; type: cell-based; conditions: dose 1-5 µM
[15] = molecular target: T1, Tyrosine-protein kinase BTK; test: Inhibition of BTK in human Ramos cells assessed as reduction of IgM stimulated PLCgamma2 (Y1217) phosphorylation at 1 to 5 uM measured after 24 hrs by western blot assay; type: cell-based; conditions: dose 1-5 µM
[16] = molecular target: T1, Tyrosine-protein kinase BTK; test: Inhibition of BTK in human UPF7U cells assessed as reduction of IgM stimulated PLCgamma1 (Y783) phosphorylation at 0.125 to 1 uM measured after 24 hrs by western blot assay relative to Ibrutinib; type: cell-based; conditions: dose 0.125-1 µM
[17] = molecular target: Tyrosine-protein kinase Lck (Homo sapiens) (UniProt P06239); test: Inhibition of recombinant LCK (unknown origin) assessed as residual activity at 1 uM
[18] = molecular target: T1, Tyrosine-protein kinase BTK; test: Inhibition of BTK in human Ramos cells assessed as reduction of IgM stimulated BTK phosphorylation measured after 24 hrs by western blot assay; type: cell-based; conditions: dose 0.125-1 µM
[19] = molecular target: Proto-oncogene tyrosine-protein kinase Src (Homo sapiens) (UniProt P12931); test: Inhibition of recombinant SRC (unknown origin) assessed as residual activity at 1 uM
[20] = molecular target: T1, Tyrosine-protein kinase BTK; test: Inhibition of BTK in human UPF7U cells assessed as reduction of IgM stimulated BTK phosphorylation measured after 24 hrs by western blot assay; type: cell-based; conditions: dose 0.125-1 µM
[21] = molecular target: T1, Tyrosine-protein kinase BTK; test: Inhibition of BTK in human Ramos cells assessed as reduction of IgM stimulated PLCgamma1 (Y783) phosphorylation at 0.125 to 1 uM measured after 24 hrs by western blot assay relative to Ibrutinib; type: cell-based; conditions: dose 0.125-1 µM
[22] = molecular target: T1, Tyrosine-protein kinase BTK; test: Inhibition of BTK in human UPF7U cells assessed as reduction of IgM stimulated PLCgamma2 (Y1217) phosphorylation at 0.125 to 1 uM measured after 24 hrs by western blot assay relative to Ibrutinib; type: cell-based; conditions: dose 0.125-1 µM
[23] = molecular target: T1, Tyrosine-protein kinase BTK; test: Inhibition of BTK in human Ramos cells assessed as reduction of IgM stimulated PLCgamma2 (Y1217) phosphorylation at 0.125 to 1 uM measured after 24 hrs by western blot assay relative to Ibrutinib; type: cell-based; conditions: dose 0.125-1 µM

Tyrosine-protein kinase Fyn (Homo sapiens), sequence (P06241 2-537 limits assumed): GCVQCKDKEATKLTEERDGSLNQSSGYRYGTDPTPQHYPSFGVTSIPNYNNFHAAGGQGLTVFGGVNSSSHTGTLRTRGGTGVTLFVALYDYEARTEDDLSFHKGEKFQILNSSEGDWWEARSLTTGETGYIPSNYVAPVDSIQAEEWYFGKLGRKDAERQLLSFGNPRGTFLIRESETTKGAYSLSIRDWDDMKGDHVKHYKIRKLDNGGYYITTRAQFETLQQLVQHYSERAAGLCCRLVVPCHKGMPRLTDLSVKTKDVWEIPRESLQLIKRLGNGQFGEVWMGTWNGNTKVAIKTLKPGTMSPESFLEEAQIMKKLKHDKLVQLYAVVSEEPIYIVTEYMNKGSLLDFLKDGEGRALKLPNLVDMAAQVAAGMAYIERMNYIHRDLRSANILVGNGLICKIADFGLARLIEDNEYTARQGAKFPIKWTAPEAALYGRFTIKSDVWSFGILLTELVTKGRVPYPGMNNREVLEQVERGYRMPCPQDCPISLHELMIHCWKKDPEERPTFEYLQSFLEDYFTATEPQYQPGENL
Tyrosine-protein kinase ABL1 (Homo sapiens), sequence (P00519 whole entry, the tested form may be a part): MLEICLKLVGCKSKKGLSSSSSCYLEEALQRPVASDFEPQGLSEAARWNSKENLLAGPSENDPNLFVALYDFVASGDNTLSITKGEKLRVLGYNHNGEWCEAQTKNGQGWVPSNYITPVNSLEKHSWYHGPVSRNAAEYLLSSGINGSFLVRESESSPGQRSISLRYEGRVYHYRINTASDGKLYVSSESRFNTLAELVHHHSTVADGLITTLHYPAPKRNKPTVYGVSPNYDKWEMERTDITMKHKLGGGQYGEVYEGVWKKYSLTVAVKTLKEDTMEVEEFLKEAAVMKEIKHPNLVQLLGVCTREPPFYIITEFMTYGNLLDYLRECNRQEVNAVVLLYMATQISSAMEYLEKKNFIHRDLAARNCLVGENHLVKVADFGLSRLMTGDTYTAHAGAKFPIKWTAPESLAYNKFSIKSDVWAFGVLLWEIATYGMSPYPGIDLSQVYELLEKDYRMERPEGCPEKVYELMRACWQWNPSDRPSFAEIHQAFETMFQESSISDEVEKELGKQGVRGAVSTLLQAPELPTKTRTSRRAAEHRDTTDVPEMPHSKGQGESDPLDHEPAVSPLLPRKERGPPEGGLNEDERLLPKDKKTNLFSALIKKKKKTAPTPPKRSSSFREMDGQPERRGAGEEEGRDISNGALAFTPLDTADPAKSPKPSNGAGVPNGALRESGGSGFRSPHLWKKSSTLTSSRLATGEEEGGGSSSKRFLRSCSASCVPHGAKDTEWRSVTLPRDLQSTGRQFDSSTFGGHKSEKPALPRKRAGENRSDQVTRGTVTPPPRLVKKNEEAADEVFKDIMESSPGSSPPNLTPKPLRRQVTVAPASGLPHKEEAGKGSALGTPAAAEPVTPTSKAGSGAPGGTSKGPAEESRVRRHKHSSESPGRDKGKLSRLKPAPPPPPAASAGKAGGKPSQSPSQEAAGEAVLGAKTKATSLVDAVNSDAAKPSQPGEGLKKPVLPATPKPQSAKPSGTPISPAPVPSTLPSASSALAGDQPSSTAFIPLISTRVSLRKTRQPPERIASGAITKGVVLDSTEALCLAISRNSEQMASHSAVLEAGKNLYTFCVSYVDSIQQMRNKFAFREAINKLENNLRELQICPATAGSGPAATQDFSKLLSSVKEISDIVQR
Mitogen-activated protein kinase; ERK1/ERK2 (Homo sapiens), sequence (P27361 whole entry, looked up): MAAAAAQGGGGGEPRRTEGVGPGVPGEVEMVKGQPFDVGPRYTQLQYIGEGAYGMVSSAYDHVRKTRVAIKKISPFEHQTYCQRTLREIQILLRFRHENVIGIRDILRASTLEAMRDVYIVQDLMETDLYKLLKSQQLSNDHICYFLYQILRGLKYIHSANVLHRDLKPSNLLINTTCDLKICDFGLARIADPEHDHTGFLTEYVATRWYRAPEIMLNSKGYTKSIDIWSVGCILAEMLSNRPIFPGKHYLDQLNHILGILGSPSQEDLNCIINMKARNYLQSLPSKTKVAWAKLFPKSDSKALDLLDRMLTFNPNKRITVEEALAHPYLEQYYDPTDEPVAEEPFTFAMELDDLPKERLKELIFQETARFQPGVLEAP
Mitogen-activated protein kinase; ERK1/ERK2 (Homo sapiens), sequence (P28482 whole entry, looked up): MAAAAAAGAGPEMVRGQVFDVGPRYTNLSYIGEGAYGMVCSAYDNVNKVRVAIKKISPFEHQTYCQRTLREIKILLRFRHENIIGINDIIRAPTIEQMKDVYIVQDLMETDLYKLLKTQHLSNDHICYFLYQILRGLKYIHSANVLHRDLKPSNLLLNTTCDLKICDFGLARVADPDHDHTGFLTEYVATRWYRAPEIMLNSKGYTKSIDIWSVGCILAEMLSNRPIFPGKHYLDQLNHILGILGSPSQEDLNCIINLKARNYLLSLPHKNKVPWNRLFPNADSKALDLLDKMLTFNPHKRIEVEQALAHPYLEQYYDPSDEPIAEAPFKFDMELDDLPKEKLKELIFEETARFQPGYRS
Receptor-type tyrosine-protein kinase FLT3 (Homo sapiens), sequence (P36888 whole entry, the tested form may be a part): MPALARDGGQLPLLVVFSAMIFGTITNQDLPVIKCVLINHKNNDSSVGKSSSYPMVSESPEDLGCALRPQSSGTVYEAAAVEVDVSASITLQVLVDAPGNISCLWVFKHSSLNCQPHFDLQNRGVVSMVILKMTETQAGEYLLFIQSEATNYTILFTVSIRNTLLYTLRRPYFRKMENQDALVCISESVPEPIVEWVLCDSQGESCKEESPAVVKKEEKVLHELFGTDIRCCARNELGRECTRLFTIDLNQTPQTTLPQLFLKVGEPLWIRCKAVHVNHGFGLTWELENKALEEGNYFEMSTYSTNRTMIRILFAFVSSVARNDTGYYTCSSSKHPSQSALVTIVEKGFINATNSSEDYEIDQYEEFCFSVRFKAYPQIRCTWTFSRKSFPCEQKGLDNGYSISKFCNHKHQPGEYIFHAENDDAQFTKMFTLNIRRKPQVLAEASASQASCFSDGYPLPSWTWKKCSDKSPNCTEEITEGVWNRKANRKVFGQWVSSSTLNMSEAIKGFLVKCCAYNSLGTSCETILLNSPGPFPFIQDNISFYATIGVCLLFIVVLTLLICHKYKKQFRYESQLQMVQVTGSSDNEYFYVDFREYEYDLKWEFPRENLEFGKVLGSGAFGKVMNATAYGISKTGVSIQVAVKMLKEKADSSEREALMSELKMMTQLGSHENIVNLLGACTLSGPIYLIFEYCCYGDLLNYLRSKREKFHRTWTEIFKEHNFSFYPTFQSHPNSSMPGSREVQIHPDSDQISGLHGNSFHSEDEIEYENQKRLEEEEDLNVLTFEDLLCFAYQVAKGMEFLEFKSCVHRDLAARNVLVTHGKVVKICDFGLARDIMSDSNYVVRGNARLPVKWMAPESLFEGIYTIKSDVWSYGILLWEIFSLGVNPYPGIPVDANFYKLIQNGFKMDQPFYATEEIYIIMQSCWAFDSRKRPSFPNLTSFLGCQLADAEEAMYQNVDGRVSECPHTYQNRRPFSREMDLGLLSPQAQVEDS
T1 sequence (Q06187 whole entry): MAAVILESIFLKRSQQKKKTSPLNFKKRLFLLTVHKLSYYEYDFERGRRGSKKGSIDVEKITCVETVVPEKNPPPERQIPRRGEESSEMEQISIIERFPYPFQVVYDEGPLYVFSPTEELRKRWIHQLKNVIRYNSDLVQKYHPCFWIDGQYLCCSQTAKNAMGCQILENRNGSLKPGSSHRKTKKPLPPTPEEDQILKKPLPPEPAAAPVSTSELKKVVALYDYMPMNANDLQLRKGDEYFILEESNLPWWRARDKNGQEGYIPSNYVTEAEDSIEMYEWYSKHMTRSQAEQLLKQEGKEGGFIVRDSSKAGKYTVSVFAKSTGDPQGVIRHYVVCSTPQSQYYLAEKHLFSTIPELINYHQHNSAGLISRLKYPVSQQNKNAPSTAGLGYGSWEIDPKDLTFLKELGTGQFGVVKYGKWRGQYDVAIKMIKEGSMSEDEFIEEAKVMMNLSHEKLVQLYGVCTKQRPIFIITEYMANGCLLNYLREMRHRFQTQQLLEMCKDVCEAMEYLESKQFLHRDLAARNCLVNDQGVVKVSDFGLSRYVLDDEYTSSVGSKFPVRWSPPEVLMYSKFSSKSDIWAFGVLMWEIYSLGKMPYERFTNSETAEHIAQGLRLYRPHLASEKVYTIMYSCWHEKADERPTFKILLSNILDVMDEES
Tyrosine-protein kinase Lck (Homo sapiens), sequence (P06239 2-509 limits assumed): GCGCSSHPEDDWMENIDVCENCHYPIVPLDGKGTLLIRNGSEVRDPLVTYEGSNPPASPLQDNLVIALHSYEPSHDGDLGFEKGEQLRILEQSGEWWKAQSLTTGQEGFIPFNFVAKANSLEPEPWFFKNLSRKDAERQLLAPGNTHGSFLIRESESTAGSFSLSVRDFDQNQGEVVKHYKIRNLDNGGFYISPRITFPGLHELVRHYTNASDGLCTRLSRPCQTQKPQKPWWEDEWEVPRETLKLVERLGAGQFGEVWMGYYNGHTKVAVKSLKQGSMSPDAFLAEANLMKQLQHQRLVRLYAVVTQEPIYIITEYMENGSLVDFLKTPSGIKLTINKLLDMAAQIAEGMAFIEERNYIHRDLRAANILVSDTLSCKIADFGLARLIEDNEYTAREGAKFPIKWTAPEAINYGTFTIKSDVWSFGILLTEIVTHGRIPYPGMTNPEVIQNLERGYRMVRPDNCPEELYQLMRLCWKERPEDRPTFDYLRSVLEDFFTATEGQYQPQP

Row | Compound | Activity [3] [%] | Activity [5] [%] | Activity [8] [%] | Activity [9] [%] | Activity [10] [%] | GI50 ([1]; Homo sapiens, Ramos) [µM] | GI50 ([2]; Homo sapiens, K562) [µM] | Activity [11] [%] | pIC50 [12] | GI50 ([4]; Homo sapiens, UPF7U) [µM] | GI50 ([6]; Homo sapiens, UPF1H) [µM] | GI50 ([7]; Homo sapiens, Rec1) [µM] | also measured
1 | C=CC(=O)N1CCC[C@H](n2nc(-c3ccc(Oc4ccccc4)cc3)c3c(N)ncnc32)C1 | 69.8 | 57.5 | 77.3 | 62.8 | 60.3 | – | – | – | – | – | – | – | GI50 [1]: > 4 µM; GI50 [2]: > 4 µM; GI50 [4]: > 4 µM; GI50 [6]: > 4 µM; GI50 [7]: 3.3 µM
2 | Cc1c(NC(=O)c2ccc(C(C)(C)C)cc2)cccc1-c1cc2[nH]cnc2c(Nc2ccc(C(=O)N3CCOCC3)cc2)n1 | 92.1 | 80.6 | 80.3 | > 100 | 51.9 | 16.5 | 32.7 | 18.4 | 7.60 | 20.6 | 12.2 | 24 | inhibition [13]: inactive; inhibition [14]: Active; inhibition [15]: Active
3 | Cc1cccc(-c2cc3[nH]cnc3c(Nc3ccc(C(=O)N4CCOCC4)cc3)n2)c1C | – | – | – | – | – | 45.8 | > 50 | – | – | > 50 | > 50 | 42 | inhibition [13]: inactive
4 | Cc1c(NC(=O)c2ccccn2)cccc1-c1cc2[nH]cnc2c(Nc2ccc(C(=O)N3CCOCC3)cc2)n1 | 93.7 | 78.8 | 72.5 | 56.8 | > 100 | > 12.5 | > 12.5 | 27.4 | 6.78 | > 12.5 | > 12.5 | > 12.5 | –
5 | Cc1c(NC(=O)c2cccnc2)cccc1-c1cc2[nH]cnc2c(Nc2ccc(C(=O)N3CCOCC3)cc2)n1 | 89 | 75.2 | 62.3 | 69.1 | 76.2 | > 50 | > 50 | 25.3 | 6.58 | > 50 | > 50 | > 50 | inhibition [13]: inactive; inhibition [14]: Active; inhibition [15]: Active
6 | COc1ccc(Cn2cnc3c(Nc4ccc(C(=O)N5CCOCC5)cc4)nc(-c4cccc(NC(=O)c5ccc(C(C)(C)C)cc5)c4C)cc32)cc1 | 96.7 | 73.9 | 82.3 | 95.1 | 42.7 | > 50 | > 50 | 71.2 | < 5.00 | > 50 | > 50 | > 50 | –
7 | Cc1c(NC(=O)C2CCCCC2)cccc1-c1cc2[nH]cnc2c(Nc2ccc(C(=O)N3CCOCC3)cc2)n1 | 93 | 95.1 | 43.3 | – | 75.7 | 47.2 | 49 | 61.5 | 6.03 | > 50 | 44.1 | > 50 | inhibition [13]: inactive; inhibition [14]: Active; inhibition [15]: Active
8 | Cc1c(NC(=O)c2ccccc2)cccc1-c1cc2[nH]cnc2c(Nc2ccc(C(=O)N3CCOCC3)cc2)n1 | 85.2 | 65.3 | 71.3 | 68.2 | 47 | > 16.6 | > 16.6 | 20.1 | 6.81 | > 50 | > 50 | > 16.6 | –
9 | Cc1c(NC(=O)c2nc3ccccc3[nH]2)cccc1-c1cc2[nH]cnc2c(Nc2ccc(C(=O)N3CCOCC3)cc2)n1 | 97.9 | 64.7 | 92 | 78 | 53.9 | 10.1 | 10 | 20.9 | 7.46 | > 12.5 | > 12.5 | > 12.5 | inhibition [14]: Active; inhibition [15]: Active
10 | Cc1c(NC(=O)c2ccc(C(C)(C)C)cc2)cccc1-c1cc2c(ncn2C)c(Nc2ccc(C(=O)N3CCOCC3)cc2)n1 | 95.6 | 68.8 | 74.3 | > 100 | > 100 | 12.2 | 57.3 | 39.7 | 6.28 | 35.6 | 25.6 | 17.7 | –
11 | CC(C)(C)c1ccc(C(=O)Nc2cccc(-c3cc4[nH]cnc4c(Nc4ccc(C(=O)N5CCOCC5)cc4)n3)c2)cc1 | 98.7 | 86.4 | 71.4 | 95.9 | > 100 | 1.2 | 2.3 | 14.7 | 7.57 | 5.5 | 1 | 6 | inhibition [16]: Active; inhibition [17]: Active; inhibition [18]: Dose-Dependent Effect; inhibition [19]: Active; inhibition [20]: Dose-Dependent Effect; inhibition [21]: Active; inhibition [22]: Active; inhibition [23]: Active

The next lines start with results.

Row | Activity [3] [%] | Activity [5] [%] | Activity [8] [%] | Activity [9] [%] | Activity [10] [%] | GI50 ([1]; Homo sapiens, Ramos) [µM] | GI50 ([2]; Homo sapiens, K562) [µM] | Activity [11] [%] | pIC50 [12] | Compound | GI50 ([4]; Homo sapiens, UPF7U) [µM] | GI50 ([6]; Homo sapiens, UPF1H) [µM] | GI50 ([7]; Homo sapiens, Rec1) [µM] | also measured
12 | – | – | – | – | – | > 50 | > 50 | – | – | Cc1cccc(-c2cc(Nc3ccc(C(=O)N4CCOCC4)cc3)c3nc[nH]c3n2)c1C | > 50 | > 50 | > 50 | –
13 | 93.6 | 56.3 | 66 | 39.4 | 33.3 | > 25 | > 25 | 24.2 | 7.39 | Cc1c(NC(=O)c2ncc[nH]2)cccc1-c1cc2[nH]cnc2c(Nc2ccc(C(=O)N3CCOCC3)cc2)n1 | > 25 | > 12.5 | > 25 | –
14 | 95.3 | 81 | 74.1 | > 100 | 64.9 | 18.6 | 60.1 | 43.3 | 6.15 | Cc1c(NC(=O)c2cccc(C(C)(C)C)c2)cccc1-c1cc2[nH]cnc2c(Nc2ccc(C(=O)N3CCOCC3)cc2)n1 | > 50 | 40.3 | 64 | –
15 | 94.5 | 84 | 61.7 | 52.4 | 95 | > 50 | > 50 | 38.8 | 6.26 | CC(=O)Nc1cccc(-c2cc3[nH]cnc3c(Nc3ccc(C(=O)N4CCOCC4)cc3)n2)c1C | > 50 | 35.1 | > 50 | –
16 | 94.6 | 36.6 | 76.5 | 80.8 | 68.3 | > 50 | > 50 | 27.2 | 7.10 | Cc1c(NC(=O)c2c[nH]cn2)cccc1-c1cc2[nH]cnc2c(Nc2ccc(C(=O)N3CCOCC3)cc2)n1 | > 50 | > 25 | > 50 | –
